Data as given in patent publication EP0212822A1, “A composition containing a plant growth regulator and an alkanol and a method of using the same” (ICI AMERICAS INC., priority 1985, dated 1987).

What was measured:
Malus communis (Apple) = test: Trunk injection, percent of growth based upon a control; format: in vivo; settings: 35 days after treatment
Protocol: (§1) The examples which follow exemplify the improvements obtained by this invention. However, these examples are not intended to limit the scope of the invention. In Examples 1-41, the subject trees were injected at a distance approximately one foot from the soil line by drilling 7/32 inch diameter holes to a 2 inch depth at a 30-45° angle tangential to the trunk with a pressure injector (150 psi) purchased from the Asplundh Tree Expert Co., Company No. 346-3502. The results are expressed in terms of Retardation and Uniformity Ratings. The Retardation rating scale is as follows: • 0 = no retardataion • 1 = 1-20% retardation • 2 = 21-40% retardation • 3 = 41-60% retardation • 4 = 61-80% retardation • 5 = 81-100% retardation
(2RS, 3RS)-1-(4-chlorophenyl-4,4-dimethyl-2,-1,2,4-triazol-1-yl)pentan-3-ol (PGR) was dissolved in 1 liter of solvent at room temperature and the resulting solution was stirred until clear, approximately 20 to 30 minutes. Two equal aliquots of the resulting solution were injected into two injection holes of the trunk of Malus communis (Apple) having a trunk diameter at the point of injection approximately 4 to 5 inches. The injection holes were approximately 12 inches above the soil surface. The percent of growth, based upon a control, was measured 35 days after treatment.

[1] = Absorption kinetics: binding of 14C-labelled compound to sawdust; format: physicochemical, Betula pendula-Roth (Birch); settings: for µg in solution: 2 gm sawdust, 20 ml water, 10 mg/l 14C (II)
Protocol: This example illustrates the binding (absorption) properties of the PGR of this invention to wood of the-conducting tissue of Betula pendula-Roth (Birch). The compounds of this invention preferably show partial and reversible binding which enhances the slow release effect by initial precipitation in the trunk. Sawdust samples were obtained from the outer wood of freshly cut, debarked logs. 2 gm samples of sawdust were shaken with 20 ml water containing ^14C triazole-labelled (II) at a concentration of 10 mg 1^-1. At intervals, the aqueous phase was subsampled, and the concentration of (II) determined by scintillation counting. A decrease in concentration reflects binding to the wood, expressed as kd (ratio of chemical bound to wood:chemical in solution).

Willow Oak = test: Trunk injection, holes at 4 inch intervals, Retardation and Uniformity Ratings; format: in vivo, Quercus phellos (Willow Oak); parameters: key to Uniformity Rating (U): 0 = no effect from PGR; 1 = poor; 2 = fair; 3 = acceptable; 4 = very good; 5 = excellent; settings: 38 ml/hole
Protocol: as §1
(§2) The Uniformity Rating is a measure of the consistency of response to the treatment between different branches of the tree. The Uniformity scale employed is as follows: • 0 = no effect from PGR • 1 = poor • 2 = fair • 3 = acceptable • 4 = very good • 5 = excellent
10 (0.034 moles), 20 (0.068 moles) and 40 grams (0.136 moles) of (2RS, 3RS)-1-(4-chlorophenyl)-4,4-dimethyl-2-l,2,4-triazol-l-yl)pentan-3-ol (PGR) were dissolved in 1,1 and 1 liter, respectively, of methanol at room temperature and was stirred until the solution was clear, approximately 20 to 60 minutes. In these examples, the injection holes were placed at approximate 4 inch intervals.

Sycamore = test: Trunk injection, holes at 8 inch intervals, Retardation and Uniformity Ratings; format: in vivo, Platanus occidentalis (Sycamore); parameters: key to Uniformity Rating (U): 0 = no effect from PGR; 1 = poor; 2 = fair; 3 = acceptable; 4 = very good; 5 = excellent; settings: 75 ml/hole
Protocol: as §1, §2
10 (0.034 moles), 20 (0.068 moles) and 40 grams (0.136 moles) of (2RS, 3RS)-1-(4-chlorophenyl)-4,4-dimethyl-2-1,2,4-triazol-1-yl)pentan-3-ol (PGR) was dissolved in 1,1 and 1 liter, respectively, of methanol at room temperature and was stirred until the solution was clear, approximately 20 to 60 minutes. In these examples, the injection holes were placed at approximate 8 inch intervals.

[2] = Solubility in methanol water mixtures (HPLC and UV absorption); format: physicochemical
Protocol: An excess of compound of formula (II) was shaken with methanol water mixtures for a minimum of 4 hours. Samples were passed through a micropore filter to remove undissolved solid, and then centrifuged to remove any emulsified material. The resulting saturated solutions were analyzed by both HPLC and UV absorption against known standard solutions. […] In water alone, solubility is only 35 mg 1^-1 (ppm). Thus, formulations of formula (II) in methanol are low in viscosity when injected, and the PGR will rapidly precipitate within the trunk as the methanol becomes diluted with transpiration water.

[3] = week 24, 20 g PGR in 1 liter methanol
[4] = week 24, 40 g PGR in 1 liter methanol
[5] = week 56, 20 g PGR in 1 liter methanol
[6] = week 56, 40 g PGR in 1 liter methanol

## CC(C)(C)[C@@H](O)[C@@H](Cc1ccc(Cl)cc1)n1cncn1 (racemic) [Formula (II), (2RS,3RS)-1-(4-chlorophenyl-4,4-dimethyl-2-1,2,4-triazol-1-yl)pentan-3-ol]
Malus communis (Apple); 2 g PGR in 1 liter Water, total inj. vol. not given
  Growth, % of Control: 84 % of Control
Malus communis (Apple); 2.5 g PGR in 1 liter Ethanol, total inj. vol. 200 ml
  Growth, % of Control: 58 % of Control
Malus communis (Apple); 5 g PGR in 1 liter Ethanol, total inj. vol. 100 ml
  Growth, % of Control: 59 % of Control
Malus communis (Apple); 5 g PGR in 1 liter Ethanol, total inj. vol. 200 ml
  Growth, % of Control: 58 % of Control
Malus communis (Apple); 10 g PGR in 1 liter Ethanol, total inj. vol. 50 ml
  Growth, % of Control: 70 % of Control
Malus communis (Apple); 10 g PGR in 1 liter Ethanol, total inj. vol. 100 ml
  Growth, % of Control: 76 % of Control
Malus communis (Apple); 10 g PGR in 1 liter Ethanol, total inj. vol. 200 ml
  Growth, % of Control: 56 % of Control
Malus communis (Apple); 10 g PGR in 1 liter Methanol, total inj. vol. 200 ml
  Growth, % of Control: 59 % of Control
Malus communis (Apple); 10 g PGR in 1 liter Water, total inj. vol. 50 ml
  Growth, % of Control: 100 % of Control
Malus communis (Apple); 10 g PGR in 1 liter Water, total inj. vol. 100 ml
  Growth, % of Control: 103 % of Control
Malus communis (Apple); 20 g PGR in 1 liter Ethanol, total inj. vol. 25 ml
  Growth, % of Control: 79 % of Control
Malus communis (Apple); 20 g PGR in 1 liter Ethanol, total inj. vol. 50 ml
  Growth, % of Control: 82 % of Control
Malus communis (Apple); 20 g PGR in 1 liter Ethanol, total inj. vol. 100 ml
  Growth, % of Control: 60 % of Control
Malus communis (Apple); 20 g PGR in 1 liter Methanol, total inj. vol. 100 ml
  Growth, % of Control: 60 % of Control
Malus communis (Apple); 40 g PGR in 1 liter Ethanol, total inj. vol. 25 ml
  Growth, % of Control: 77 % of Control
Malus communis (Apple); 40 g PGR in 1 liter Ethanol, total inj. vol. 50 ml
  Growth, % of Control: 72 % of Control
Malus communis (Apple); 40 g PGR in 1 liter Methanol, total inj. vol. 50 ml
  Growth, % of Control: 76 % of Control
Malus communis (Apple); 40 g PGR in 1 liter Methanol, total inj. vol. 100 ml
  Growth, % of Control: 52 % of Control
Malus communis (Apple); 50 g PGR in 1 liter Ethanol, total inj. vol. 10 ml
  Growth, % of Control: 90 % of Control
Malus communis (Apple); 80 g PGR in 1 liter Methanol, total inj. vol. 25 ml
  Growth, % of Control: 68 % of Control
[1]; 0 hours
  µg in solution: 200 µg
[1]; 0.5 hours
  kd (ratio of chemical bound to wood:chemical in solution): 0.7
  µg in solution: 116 µg
[1]; 1 hour
  kd (ratio of chemical bound to wood:chemical in solution): 1.4
  µg in solution: 84 µg
[1]; 2 hours
  kd (ratio of chemical bound to wood:chemical in solution): 1.5
  µg in solution: 81 µg
[1]; 4 hours
  kd (ratio of chemical bound to wood:chemical in solution): 1.7
  µg in solution: 75 µg
[1]; 8 hours
  kd (ratio of chemical bound to wood:chemical in solution): 1.8
  µg in solution: 72 µg
[1]; 24 hours
  kd (ratio of chemical bound to wood:chemical in solution): 1.7
  µg in solution: 74 µg
[1]; 48 hours
  kd (ratio of chemical bound to wood:chemical in solution): 1.8
  µg in solution: 76 µg
Willow Oak; [3]
  Retardation Rating (R): 4 (4 = 61-80% retardation)
  Uniformity Rating (U): 3
Willow Oak; [4]
  Retardation Rating (R): 4 (4 = 61-80% retardation)
  Uniformity Rating (U): 4
Willow Oak; [5]
  Retardation Rating (R): 5 (5 = 81-100% retardation)
  Uniformity Rating (U): 5
Willow Oak; [6]
  Retardation Rating (R): 4 (4 = 61-80% retardation)
  Uniformity Rating (U): 4
Sycamore; [3]
  Retardation Rating (R): 3 (3 = 41-60% retardation)
  Uniformity Rating (U): 4
Sycamore; [5]
  Retardation Rating (R): 4 (4 = 61-80% retardation)
  Uniformity Rating (U): 4
[2]; in water alone
  solubility at 4 h: 35 µg/mL
[2]; organic solvent or mixture, 10 % Methanol in water
  solubility at 4 h: 53 µg/mL
[2]; organic solvent or mixture, 20 % Methanol in water
  solubility at 4 h: 89 µg/mL
[2]; organic solvent or mixture, 50 % Methanol in water
  solubility at 4 h: 1200 µg/mL
[2]; organic solvent or mixture, 100 % Methanol
  solubility at 4 h: 56000 µg/mL
[2]; water (0% methanol), organic solvent or mixture, 0 % Methanol
  solubility at 4 h: 35 µg/mL
